Test results from ChEMBL document CHEMBL5120826, “Effects of β-lapachone and β-nor-lapachone on multidrug efflux transporters and biofilms of Candida glabrata” (Bioorg Med Chem, 2022).
Calls of active or inactive are those of the source. No cut-off for these calls is given here.

Key:
Nakaseomyces glabratus [1] = experiment: Indifferent antifungal activity against fluconazole resistant Candida glabrata 109 overexpressing CgCdr1p transporter assessed as reduction in fungal growth incubated for 48 hrs in presence of lapachone by checkboard assay based microplate reader analysis; format: functional
Nakaseomyces glabratus [2] = experiment: Antibiofilm activity against fluconazole resistant Candida glabrata 109 overexpressing CgCdr1p transporter assessed as reduction in metabolic activity at highest concentration incubated for 48 hrs; format: functional; design: scale not given: the % may be the effect or the level left
Nakaseomyces glabratus [3] = experiment: Indifferent antifungal activity against fluconazole sensitive Candida glabrata ATCC 2001 assessed as fractional inhibitory concentration incubated for 48 hrs in presence of fluconazole by checkboard assay based microplate reader analysis; format: functional
Saccharomyces cerevisiae [4] = experiment: Antifungal activity against fluconazole resistant Saccharomyces cerevisiae overexpressing CgCdr2p transporter assessed as reduction in fungal growth incubated for 48 hrs in presence of fluconazole by serial dilution method; format: functional, organism-based
Saccharomyces cerevisiae [5] = experiment: Effect on efflux pump function in fluconazole resistant Saccharomyces cerevisiae overexpressing CgCdr1p transporter assessed as accumulation of Nile red fluorescence incubated for 1 hr by fluorescence based assay; format: functional
Erythrocyte [6] = experiment: Hemolytic activity in human erythrocytes assessed as haemoglobin release at 50 ug/ml incubated for 1 hr by absorbance based method; format: toxicity, cell-based; settings: dose 50 µg/ml
Erythrocyte [7] = experiment: Hemolytic activity in human erythrocytes assessed as haemoglobin release at 50 ug/ml incubated for 1 hr in presence of fluconazole by absorbance based method; format: toxicity, cell-based; settings: dose 50 µg/ml
Nakaseomyces glabratus [8] = experiment: Induction of morphological changes in fluconazole resistant Candida glabrata 109 overexpressing CgCdr1p transporter assessed as decrease in number of cells within biofilm at 200 ug/ml incubated for 48 hrs by SEM analysis; format: functional, organism-based; settings: dose 200.0 µg/ml
Saccharomyces cerevisiae [9] = experiment: Additive antifungal activity against fluconazole resistant Saccharomyces cerevisiae overexpressing CgCdr1p transporter assessed as reduction in fungal growth incubated for 48 hrs in presence of lapachone by checkboard assay based microplate reader analysis; format: functional
Saccharomyces cerevisiae [10] = experiment: Additive antifungal activity against fluconazole resistant Saccharomyces cerevisiae overexpressing CgCdr1p transporter assessed as fractional inhibitory concentration incubated for 48 hrs in presence of lapachone by checkboard assay based microplate reader analysis; format: functional
Saccharomyces cerevisiae [11] = experiment: Additive antifungal activity against fluconazole resistant Saccharomyces cerevisiae overexpressing CgCdr1p transporter assessed as reduction in fungal growth incubated for 48 hrs in presence of fluconazole by checkboard assay based microplate reader analysis; format: functional
Saccharomyces cerevisiae [12] = experiment: Additive antifungal activity against fluconazole resistant Saccharomyces cerevisiae overexpressing CgCdr1p transporter assessed as fractional inhibitory concentration in presence of fluconazole incubated for 48 hrs by checkboard assay based microplate reader analysis; format: functional
Saccharomyces cerevisiae [13] = experiment: Additive antifungal activity against fluconazole resistant Saccharomyces cerevisiae overexpressing CgCdr1p transporter assessed as fractional inhibitory concentration index incubated for 48 hrs by checkboard assay based microplate reader analysis; format: functional
Nakaseomyces glabratus [14] = experiment: Disruption of plasma membrane integrity in fluconazole resistant Candida glabrata 109 overexpressing CgCdr1p transporter assessed as fold increase in sytox green fluorescence intensity at 200 ug/ml incubated for 48 hrs by fluorescence based assay; format: functional; settings: dose 200 µg/ml
Nakaseomyces glabratus [15] = experiment: Disruption of plasma membrane integrity in fluconazole resistant Candida glabrata 109 overexpressing CgCdr1p transporter assessed as fold increase in sytox green fluorescence intensity at 50 ug/ml incubated for 48 hrs by fluorescence based assay; format: functional; settings: dose 50 µg/ml
Saccharomyces cerevisiae [16] = experiment: Synergistic antifungal activity against fluconazole resistant Saccharomyces cerevisiae overexpressing CgCdr1p transporter assessed as reduction in fungal growth incubated for 48 hrs in presence of lapachone by checkboard assay based microplate reader analysis; format: functional
Saccharomyces cerevisiae [17] = experiment: Synergistic antifungal activity against fluconazole resistant Saccharomyces cerevisiae overexpressing CgCdr2p transporter assessed as reduction in fungal growth incubated for 48 hrs in presence of lapachone by checkboard assay based microplate reader analysis; format: functional
Saccharomyces cerevisiae [18] = experiment: Synergistic antifungal activity against fluconazole resistant Saccharomyces cerevisiae overexpressing CgCdr1p transporter assessed as fractional inhibitory concentration incubated for 48 hrs in presence of lapachone by checkboard assay based microplate reader analysis; format: functional
Saccharomyces cerevisiae [19] = experiment: Synergistic antifungal activity against fluconazole resistant Saccharomyces cerevisiae overexpressing CgCdr2p transporter assessed as fractional inhibitory concentration incubated for 48 hrs in presence of lapachone by checkboard assay based microplate reader analysis; format: functional
Saccharomyces cerevisiae [20] = experiment: Synergistic antifungal activity against fluconazole resistant Saccharomyces cerevisiae overexpressing CgCdr1p transporter assessed as reduction in fungal growth incubated for 48 hrs in presence of fluconazole by checkboard assay based microplate reader analysis; format: functional
Saccharomyces cerevisiae [21] = experiment: Synergistic antifungal activity against fluconazole resistant Saccharomyces cerevisiae overexpressing CgCdr2p transporter assessed as reduction in fungal growth incubated for 48 hrs in presence of fluconazole by checkboard assay based microplate reader analysis; format: functional
Saccharomyces cerevisiae [22] = experiment: Synergistic antifungal activity against fluconazole resistant Saccharomyces cerevisiae overexpressing CgCdr1p transporter assessed as fractional inhibitory concentration in presence of fluconazole incubated for 48 hrs by checkboard assay based microplate reader analysis; format: functional
Saccharomyces cerevisiae [23] = experiment: Synergistic antifungal activity against fluconazole resistant Saccharomyces cerevisiae overexpressing CgCdr2p transporter assessed as fractional inhibitory concentration in presence of fluconazole incubated for 48 hrs by checkboard assay based microplate reader analysis; format: functional
Saccharomyces cerevisiae [24] = experiment: Inhibition of fluconazole resistant Saccharomyces cerevisiae overexpressing CgCdr2p transporter ATPase activity assessed as reduction in inorganic phosphate release in presence of ATP incubated for 1 hr by Fiske and Sub barrow method; settings: concentration not given here
Nakaseomyces glabratus [25] = experiment: Inhibition of fluconazole resistant Candida glabrata 109 overexpressing CgCdr1p transporter ATPase activity assessed as reduction in inorganic phosphate release in presence of ATP incubated for 1 hr by Fiske and Sub barrow method; settings: concentration not given here
Erythrocyte [26] = experiment: Hemolytic activity in human erythrocytes assessed as haemoglobin release at 12.5 ug/ml incubated for 1 hr by absorbance based method; format: toxicity, cell-based; settings: dose 12.5 µg/ml
Erythrocyte [27] = experiment: Hemolytic activity in human erythrocytes assessed as haemoglobin release at 12.5 ug/ml incubated for 1 hr in presence of fluconazole by absorbance based method; format: toxicity, cell-based; settings: dose 12.5 µg/ml
[28] = Inhibition of fluconazole resistant Candida glabrata 109 overexpressing CgCdr1p transporter […] cell adhesion to polystyrene at 200 ug/ml incubated for 90 mins by MTT assay; format: functional; settings: Nakaseomyces glabratus, 109, 1.5 h
Saccharomyces cerevisiae [29] = experiment: Synergistic antifungal activity against fluconazole resistant Saccharomyces cerevisiae overexpressing CgCdr1p transporter assessed as fractional inhibitory concentration index incubated for 48 hrs by checkboard assay based microplate reader analysis; format: functional

CC1(C)CC2=C(O1)c1ccccc1C(=O)C2=O [NOR-BETA-LAPACHONE]
MIC (Nakaseomyces glabratus [1]): > 200 µg/mL | Activity (Nakaseomyces glabratus [2]): 46% | FIC (Nakaseomyces glabratus [3]): 1 µg/mL | Activity (Saccharomyces cerevisiae [4]): Active | Activity (Saccharomyces cerevisiae [5]): 100% | Activity (Erythrocyte [6]): Non-Toxic | Activity (Erythrocyte [7]): Non-Toxic | Activity (Nakaseomyces glabratus [8]): Active | MIC (Saccharomyces cerevisiae [9]): 25 µg/mL | FIC (Saccharomyces cerevisiae [10]): 0.5 µg/mL | MIC (Saccharomyces cerevisiae [11]): 62.5 µg/mL | FIC (Saccharomyces cerevisiae [12]): 0.125 µg/mL | fractional inhibitory concentration index (FICI) (Saccharomyces cerevisiae [13]): 0.625

CC1(C)CCC2=C(O1)c1ccccc1C(=O)C2=O [LAPACHONE]
MIC (Nakaseomyces glabratus [1]): > 200 µg/mL | fold change (FC) (Nakaseomyces glabratus [14]): 3 | Activity (Nakaseomyces glabratus [2]): 88% | fold change (FC) (Nakaseomyces glabratus [15]): 1.6 | MIC (Saccharomyces cerevisiae [16]): 25 µg/mL | MIC (Saccharomyces cerevisiae [17]): 6.25 µg/mL | FIC (Saccharomyces cerevisiae [18]): 0.25 µg/mL | FIC (Saccharomyces cerevisiae [19]): 0.25 µg/mL | MIC (Saccharomyces cerevisiae [20]): 125 µg/mL | MIC (Saccharomyces cerevisiae [21]): 3.9 µg/mL | FIC (Saccharomyces cerevisiae [22]): 0.25 µg/mL | FIC (Saccharomyces cerevisiae [23]): 0.06 µg/mL | FIC (Nakaseomyces glabratus [3]): 1 µg/mL | Activity (Saccharomyces cerevisiae [4]): Active | Activity (Saccharomyces cerevisiae [5]): 100% | inhibition (Saccharomyces cerevisiae [24]): 46% | inhibition (Nakaseomyces glabratus [25]): 49% | Activity (Erythrocyte [26]): Non-Toxic | Activity (Erythrocyte [27]): Non-Toxic | inhibition at 200 µg/mL [28]: 44% | Activity (Nakaseomyces glabratus [8]): Active | fractional inhibitory concentration index (FICI) (Saccharomyces cerevisiae [29]): 0.5
